The supplement of paper PMC11208160

Assay: recombinant UMI read abundance after kanamycin selection (control-corrected) (log10(CPM+1)); higher = more efficient recombination; extreme values may be limits of the assay; sequences stand for … in AGTGCAGAGAAAATCGGCCAGTTTTCTCTGCCTGCAGTCCGCATGCCGTGGGACCCCTTGGGTTCTAACCTGTTGCCTAGATTTATGCAGCGGACTGCCTTTCTCCCAAAGTGATAAACCGG…AGGTTGGTTTCACT; site = the 11-nt donor
Summary of the method: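 Sequencing read counts were converted to CPM, averaged over two replicates and scaled by control-derived factors. Results are given as log10(CPM+1). The reads covered the donor–target junction of recombinant UMIs from a pooled Escherichia coli screen of donor and donor-binding-loop pairs for the IS621 bridge recombinase.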
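Further: IS621 bridge recombinase in Escherichia coli cells against a fixed T5 target plasmid.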

Row | Sequence | recombinant UMI read abundance (log10)
1 | CTCTACACATGGACCGGTTTTCCCGGTAATCCGTATTTGCT (site CTCTACACTTG) | 1.15
2 | AGGAAGACATGGACCGGTTTTCCCGGTAATCCGTATTTGCA (site AGGATGACTCG) | 0.0201
3 | AGGAAGACATGGACCGGTTTTCCCGGTAATCCGTATTTGCA (site AGCAAGACTTC) | 0.00298
4 | CCGTTGACATGGACCGGTTTTCCCGGTAATCCGTATTTGCT (site CCGTTGACTAG) | 1.05
5 | GATGTGTCATGGACCGGTTTTCCCGGTAATCCGTATTTGAA (site GATGTGTCTTT) | 2.22
6 | CCGTTAGCATGGACCGGTTTTCCCGGTAATCCGTATTTGTG (site CCGTTAGCTAA) | 0.0124
7 | CACCTGCCATGGACCGGTTTTCCCGGTAATCCGTATTTGAC (site CACCTGCCTGT) | 0
8 | CTCGGATCATGGACCGGTTTTCCCGGTAATCCGTATTTGGA (site CTCGGATCTTC) | 1.56
9 | GGCCACTCATGGACCGGTTTTCCCGGTAATCCGTATTTGTT (site GGCCACCCTAA) | 0.00888
10 | CTACTAGCATGGACCGGTTTTCCCGGTAATCCGTATTTGGA (site CTACTACCTTC) | 0.00939
11 | GCATTGTCATGGACCGGTTTTCCCGGTAATCCGTATTTGCA (site GCATTGTCTTG) | 2.76
12 | CCCGGTCCATGGACCGGTTTTCCCGGTAATCCGTATTTGTA (site CCCGGTCCTTA) | 0
13 | AAGAACACATGGACCGGTTTTCCCGGTAATCCGTATTTGCA (site AAGAACACTTG) | 2.85
14 | CTCTATACATGGACCGGTTTTCCCGGTAATCCGTATTTGAC (site GTCTATACTGT) | 0.00602
15 | CTGTCGACATGGACCGGTTTTCCCGGTAATCCGTATTTGGG (site CCGTCGACTCC) | 0.0205
16 | CCCTACACATGGACCGGTTTTCCCGGTAATCCGTATTTGTA (site CCCCACACTTA) | 0.00329
17 | CGTCATGCATGGACCGGTTTTCCCGGTAATCCGTATTTGAC (site CGTCATGCTGT) | 1.2
18 | CCCTTTACATGGACCGGTTTTCCCGGTAATCCGTATTTGCT (site CCTTTTACTAG) | 0
19 | CGGACATCATGGACCGGTTTTCCCGGTAATCCGTATTTGCT (site CTGACATCTAG) | 1.34
20 | TAAACCACATGGACCGGTTTTCCCGGTAATCCGTATTTGAT (site TAAACCACTAT) | 1.3
21 | ACTAGTGCATGGACCGGTTTTCCCGGTAATCCGTATTTGGT (site ACTAGTGCTAT) | 1.2
22 | TCGAATTCATGGACCGGTTTTCCCGGTAATCCGTATTTGCC (site TCCAATTCTGG) | 0
23 | CGGACATCATGGACCGGTTTTCCCGGTAATCCGTATTTGCT (site CGGGCATCTAG) | 0
24 | CGAAAACCATGGACCGGTTTTCCCGGTAATCCGTATTTGTT (site CGAAAACCTAA) | 0
25 | GGCATATCATGGACCGGTTTTCCCGGTAATCCGTATTTGCA (site GGCATATCTTG) | 1.57

Row | Sequence | recombinant UMI read abundance (log10)
26 | AGGAAGACATGGACCGGTTTTCCCGGTAATCCGTATTTGCA (site ATGCAGACTTG) | 0.701
27 | CCGAATACATGGACCGGTTTTCCCGGTAATCCGTATTTGGC (site CCGAATACTGC) | 0
28 | ACTAGTGCATGGACCGGTTTTCCCGGTAATCCGTATTTGGT (site ACTAGTGCTAG) | 0.699
29 | GAGCTCACATGGACCGGTTTTCCCGGTAATCCGTATTTGAC (site GAGCTCACTCT) | 0.476
30 | CCTGTCGCATGGACCGGTTTTCCCGGTAATCCGTATTTGAC (site CCTGTCGCTGT) | 0
31 | ACTAGTGCATGGACCGGTTTTCCCGGTAATCCGTATTTGGT (site ACTGGTGCTAC) | 0.583
32 | CCAGGTGCATGGACCGGTTTTCCCGGTAATCCGTATTTGAT (site TCAGGTGCTAT) | 0.0184
33 | CAAGTAACATGGACCGGTTTTCCCGGTAATCCGTATTTGAC (site CAAGTAACTGT) | 3.09
34 | TTAGTTGCATGGACCGGTTTTCCCGGTAATCCGTATTTGTG (site TTAGGTGCTCA) | 0.0142
35 | CGAGCGCCATGGACCGGTTTTCCCGGTAATCCGTATTTGTG (site CCAGCGCCTCA) | 0.0345
36 | CAGTCGACATGGACCGGTTTTCCCGGTAATCCGTATTTGGG (site CAGTCGACTCT) | 0.314
37 | TGGGAGTCATGGACCGGTTTTCCCGGTAATCCGTATTTGCC (site CGGGAGTCTGG) | 0
38 | ACAGTATCATGGACCGGTTTTCCCGGTAATCCGTATTTGCT (site ACAGTATCTAG) | 2.8
39 | GCGGCATCATGGACCGGTTTTCCCGGTAATCCGTATTTGTC (site GCGGCATCTGA) | 2.21
40 | CTATTATCATGGACCGGTTTTCCCGGTAATCCGTATTTGAC (site CTAGTATCTGT) | 1.61
41 | GAATAGACATGGACCGGTTTTCCCGGTAATCCGTATTTGCC (site GCATAGACTGG) | 1.73
42 | GCAATTACATGGACCGGTTTTCCCGGTAATCCGTATTTGTC (site GCAATTACTGA) | 0.939
43 | CAAGTCACATGGACCGGTTTTCCCGGTAATCCGTATTTGGC (site CAAGTCACTTC) | 0.596
44 | CTAGTAGCATGGACCGGTTTTCCCGGTAATCCGTATTTGAC (site CTAGTAACTGT) | 2.01
45 | AGGAAGACATGGACCGGTTTTCCCGGTAATCCGTATTTGCA (site AGGATGACTTG) | 0.688
46 | CGCCCTACATGGACCGGTTTTCCCGGTAATCCGTATTTGCT (site CGCCCTACTAG) | 1.28
47 | ATCTAGACATGGACCGGTTTTCCCGGTAATCCGTATTTGAC (site ATCTACACTGT) | 0
48 | CCCTTCTCATGGACCGGTTTTCCCGGTAATCCGTATTTGGA (site CCCTTCTCTCC) | 0.0081
49 | GCCAGTCCATGGACCGGTTTTCCCGGTAATCCGTATTTGAT (site GCCAGTCCTAT) | 0.00932
50 | CAGCTGGCATGGACCGGTTTTCCCGGTAATCCGTATTTGAT (site CAGCTGGCTAT) | 1.63

Row | Sequence | recombinant UMI read abundance (log10)
51 | CGATTGGCATGGACCGGTTTTCCCGGTAATCCGTATTTGCT (site CGGTTGGCTAG) | 0
52 | CGAGGACCATGGACCGGTTTTCCCGGTAATCCGTATTTGGG (site CCAGGACCTCC) | 0.059
53 | CGGCATCCATGGACCGGTTTTCCCGGTAATCCGTATTTGTT (site CGGAATCCTAA) | 0
54 | CCAGATGCATGGACCGGTTTTCCCGGTAATCCGTATTTGAT (site CCAGCTGCTAT) | 0.00516
55 | ACCGAGACATGGACCGGTTTTCCCGGTAATCCGTATTTGGG (site ACCCAGACTCC) | 0.0111
56 | TCAGGGACATGGACCGGTTTTCCCGGTAATCCGTATTTGCG (site TCAGCGACTCG) | 0.0114
57 | CCCCCTACATGGACCGGTTTTCCCGGTAATCCGTATTTGAG (site CCCCCTACTCT) | 0.0375
58 | GTGGAGGCATGGACCGGTTTTCCCGGTAATCCGTATTTGTA (site GTGGAGGCTGA) | 0.943
59 | TAGGGAACATGGACCGGTTTTCCCGGTAATCCGTATTTGGC (site TAGGGAACTGC) | 1.53
60 | CTGGATACATGGACCGGTTTTCCCGGTAATCCGTATTTGTC (site CTGGATACTGA) | 1.89
61 | GTTGTCGCATGGACCGGTTTTCCCGGTAATCCGTATTTGCG (site GTCGTCGCTCG) | 0.00886
62 | GTAGGTACATGGACCGGTTTTCCCGGTAATCCGTATTTGAT (site GTAGGTACTTT) | 0.00769
63 | TAAACAACATGGACCGGTTTTCCCGGTAATCCGTATTTGTA (site TAAACAACTTA) | 0.815
64 | CGGCGTACATGGACCGGTTTTCCCGGTAATCCGTATTTGCT (site CGGCGTACTAG) | 2.38
65 | ATAGTAGCATGGACCGGTTTTCCCGGTAATCCGTATTTGAC (site ATAGTAGCTGT) | 3.06
66 | GGAGTGGCATGGACCGGTTTTCCCGGTAATCCGTATTTGGG (site GGAGTGGCTCC) | 0.779
67 | GACGATTCATGGACCGGTTTTCCCGGTAATCCGTATTTGTT (site GAGGATTCTAA) | 0
68 | GCAAAAACATGGACCGGTTTTCCCGGTAATCCGTATTTGCT (site GCAAAAACTAG) | 0.226
69 | TGTAAGACATGGACCGGTTTTCCCGGTAATCCGTATTTGCG (site TGTAAGACTCG) | 0.934
70 | CAAACAGCATGGACCGGTTTTCCCGGTAATCCGTATTTGCT (site CAACCAGCTAG) | 0.00434
71 | TAACCTCCATGGACCGGTTTTCCCGGTAATCCGTATTTGAT (site TAACCTCCTAT) | 0
72 | AGACAATCATGGACCGGTTTTCCCGGTAATCCGTATTTGAG (site AGACAATCTCT) | 2.98
73 | CCCGTATCATGGACCGGTTTTCCCGGTAATCCGTATTTGGT (site CCCGTATCTAC) | 0.563
74 | AAGCAAGCATGGACCGGTTTTCCCGGTAATCCGTATTTGGG (site AAGCAAGCTCC) | 0.623
75 | ACGAGAACATGGACCGGTTTTCCCGGTAATCCGTATTTGAG (site ACCAGAACTCT) | 0.752
